Measurements from patent US20100041746A1, “NOVEL USE OF ORGANIC COMPOUNDS” (priority 2006, published 2010).

Experiments:
C57B1/6J mice = assay: Running performance, body composition and muscle weight of high-fat-diet mice supplemented for 9 weeks; type: in vivo, mouse
Procedure: 20 male C57B1/6J mice were obtained from Jackson Laboratory (Bar Harbor, Me., USA) at the age of 5 weeks. All mice were administered a high-fat diet (Kliba#2154, Provimi Kliba AG, Kaiseraugst, Switzerland) for 8 weeks to induce obesity. Thereafter, the mice were randomly assigned into two groups:
The duration of the supplementation was 9 weeks. During this period all mice received food and water ad libitum. At the end of the supplementation period, maximal running performance on a rodent treadmill (Technical & Scientific Equipment GmbH, Bad Homburg, Germany) was determined. Body composition was measured by quantitative magnetic resonance (Minispec MQ10, Bruker Optics GmbH, Faellanden, Switzerland) in conscious animals. At the end of the study, the animals were killed, blood was taken and the gastrocnemius-plantaris-soleus muscle group was excised and weighted.

mCD36 = assay: Gene expression in C2C12 muscle cells (TaqMan RT-PCR): mCD36; type: cell-based, mouse; settings: for mCD36 fold of induction compared to DMSO control: C2C12 cells, 24 h incubation, mRNA; for Effect on CD36 expression (in words): muscle cells
Procedure: (§1) C2C12 subclone cells were obtained from Dr. Grimaldi, University of Nice, France. C2C12PPd cells were seeded in 24-well-plates with 0.1×106 to 0.15×106 and kept at 37° C. in maintenance medium (DMEM #41965 adjusted to 10% FBS, 2 mM L-Glutamine, 1 mM sodium pyruvate, 100 IU/ml penicillin and 100 μg/ml streptomycin). At 90-95% confluency, cells were washed with 1×PBS and changed to differentiation medium (DMEM #41965 adjusted to 3% FBS, 2 mM Glutamine and 1 mM sodium pyruvate). After 4 days of differentiation, cells were washed with 1×PBS and treated in treatment medium (DMEM #41965 adjusted to 2% BSA, 2 mM Glutamine and 100 IU/ml penicillin and 100 μg/ml streptomycin) with the test compounds. DMSO contents were adjusted to 0.5% final concentration.
(§2) After 24 h incubation with tested compounds, cells were washed with 1×PBS, harvested with 300 μl RLT buffer (Qiagen RNeasy Mini Kit #74106) in QIAshredder (Qiagen 79656) and stored at −20° C.
(§3) Total RNA was extracted using the Qiagen RNeasy Mini Kit, including an in column DNase step (Qiagen #79254) according to the manufacture's protocol. RNA concentration was determined using RiboGreen® RNA quantification assay (Molecular Probes #R11490, Eugene, USA) according to the manufacturer's protocol. 200 ng of the total RNA were subject to first strand cDNA synthesis by reverse transcription using the Omniscript™ RT-kit (Qiagen #205113, Basel, CH) with 10 μM Random Primers (Promega #C1181) according to the manufacturer's instructions. The final volume was adjusted to 400 μl with DEPC-treated water (Ambion, Austin, Tex., USA) and stored at −20° C.
(§4) Quantitative real-time TaqMan RT-PCR, based on the multiplex method, was used to quantify the expression levels of selected genes. In the quantitative TaqMan RT-PCR, 5 μl of the diluted cDNA was added to 20 μl of the reaction mixture, consisting of 12.5 μl TaqMan 2× Master Mix (PE biosystems, Rotkreuz, CH), 300 nM PCR primers (forward and reverse), and 100 nM TaqMan probe for the gene of interest. The reference gene used was 18S rRNA, with primers and probes at 50 nM and 100 nM, respectively. Probes for the gene of interest were labeled with FAM on the 5′ end and with Tamra on the 3′ end. The 18S rRNA probe was labeled with VIC on the 5′ end and with Tamra on the 3′ end. Amplification was performed using an Abi-Prism 7700 Sequence Detector (PE Biosystems, Foster City, Calif., USA) in MicroAmp Optical 96-well reaction plates (PE Biosystems, Foster City, Calif., USA). The PCR amplification program consisted of 2 min at 50° C., 10 min at 95° C., and 40 cycles of 15 sec at 95° C. and 60 sec at 60° C. Threshold CT values were set at 0.05. The baseline start and stop values for the gene of interest were set at 3 and 15, respectively, and for the reference gene (18S rRNA) at 3 and 7, respectively. mRNA abundance was determined using the ΔCT method according to the manufacturer's protocol. Briefly, the ΔCT for the gene of interest was determined as the difference between the CT values for the reference gene and the gene of interest. Then, ΔΔCT was determined as the difference in dCT between the untreated control group and each of the treated groups. The fold induction for the gene of interest (i.e. the amount of mRNA for the gene of interest, normalized to an endogenous reference and relative to a calibrator) was determined as 2-ΔΔCT In graphs data is presented as a percentage.
(§5) Genes in involved in fatty acid β-oxidation and lipid metabolism were checked using real-time RT-PCR.

mUCP2 = assay: Gene expression in C2C12 muscle cells (TaqMan RT-PCR): mUCP2; type: cell-based, mouse; settings: 24 h incubation, mRNA
Procedure: as §1, §2, §3, §4, §5

mCPT1b = assay: Gene expression in C2C12 muscle cells (TaqMan RT-PCR): mCPT1b; type: cell-based, mouse; settings: for mCPT1b fold of induction compared to DMSO control: C2C12 cells, 24 h incubation, mRNA; for Effect on CPT1b expression (in words): muscle cells
Procedure: as §1, §2, §3, §4, §5

mACO1 = assay: Gene expression in C2C12 muscle cells (TaqMan RT-PCR): mACO1; type: cell-based, mouse; settings: 24 h incubation, mRNA
Procedure: as §1, §2, §3, §4, §5

mLPL = assay: Gene expression in C2C12 muscle cells (TaqMan RT-PCR): mLPL; type: cell-based, mouse; settings: for mLPL fold of induction compared to DMSO control: C2C12 cells, 24 h incubation, mRNA; for Effect on LPL expression (in words): muscle cells
Procedure: as §1, §2, §3, §4, §5

mFABP3 = assay: Gene expression in C2C12 muscle cells (TaqMan RT-PCR): mFABP3; type: cell-based, mouse; settings: for mFABP3 fold of induction compared to DMSO control: C2C12 cells, 24 h incubation, mRNA; for Effect on FABP3 expression (in words): muscle cells
Procedure: as §1, §2, §3, §4, §5

mUCP3 = assay: Gene expression in C2C12 muscle cells (TaqMan RT-PCR): mUCP3; type: cell-based, mouse; settings: for mUCP3 fold of induction compared to DMSO control: C2C12 cells, 24 h incubation, mRNA; for Effect on UCP3 expression (in words): muscle cells
Procedure: as §1, §2, §3, §4, §5

[1] = compared to mice in the control group
[2] = mice, high-fat diet supplemented with 0.03% w/w, 9 weeks
[3] = mice, high-fat diet supplemented with 0.03% w/w, 9 weeks, quantitative magnetic resonance

SMILES | mCD36 fold of induction compared to DMSO control (mCD36) | mUCP2 fold of induction compared to DMSO control (mUCP2) | mCPT1b fold of induction compared to DMSO control (mCPT1b) | mACO1 fold of induction compared to DMSO control (mACO1) | mLPL fold of induction compared to DMSO control (mLPL) | mFABP3 fold of induction compared to DMSO control (mFABP3) | Effect on CD36 expression (in words) (mCD36) | Effect on CPT1b expression (in words) (mCPT1b) | mUCP3 fold of induction compared to DMSO control (mUCP3) | Effect on UCP3 expression (in words) (mUCP3) | Effect on LPL expression (in words) (mLPL) | Effect on FABP3 expression (in words) (mFABP3) | further results
COc1ccc(-c2coc3cc(OC)ccc3c2=O)cc1 [4′,7-Dimethoxyisoflavone, 4′,7-dimethoxyisoflavone] | – | – | – | – | – | – | – | – | – | – | – | – | Increase of maximal running distance (C57B1/6J mice; compared to control group, treadmill): 6%; Effect on body weight (in words) (C57B1/6J mice; [1]): decreased; Effect on gastrocnemius-plantaris-soleus weight relative to body weight (in words) (C57B1/6J mice; [1]): increased; Effect on percentage of body fat mass (in words) (C57B1/6J mice; [1]): decreased; Effect on percentage of lean body mass (in words) (C57B1/6J mice; [1]): increased; Body weight (C57B1/6J mice; [2]): 30.5 g; Gastrocnemius-plantaris-soleus weight (C57B1/6J mice; [2]): 6.74 mg/g body weight; Body fat mass (C57B1/6J mice; [3]): 15.6 % of body weight; Lean body mass (C57B1/6J mice; [3]): 75.0 % of body weight; Maximal running distance (C57B1/6J mice; mice, high-fat diet supplemented with 0.03% w/w, 9 weeks, rodent treadmill): 2201 m
O=C(C=Cc1ccc(O)c(O)c1)NC(=O)c1ccccc1O [Compound 1, N-[3-(3,4-dihydroxyphenyl)-1-oxo-2-propenyl]-2-hydroxybenzamide] | 2.93 fold | 2.46 fold | 1.33 fold | 1.98 fold | 1.11 fold | 1.35 fold | – | – | – | – | – | – | –
COc1cc(C=CC(=O)NC(=O)c2ccccc2O)cc(OC)c1OC [Compound 2] | 3.2 fold | 3.27 fold | 1.05 fold | 1.81 fold | 1.91 fold | 1.63 fold | – | – | – | – | – | – | –
COc1ccc(C=CC(=O)c2cc(OC)ccc2OC)c(OC)c1 [Compound 3, 3-(2,4-dimethoxyphenyl)-1-(2,5-dimethoxyphenyl)-2-propen-1-one] | 10.16 fold | 4.25 fold | 3.64 fold | 1.54 fold | 3.5 fold | 4.76 fold | most remarkable effect | induced | 4.73 fold | increased UCP3 expression | increased moderately | most remarkable effect | –
COc1ccc(C(=O)/C=C/c2c(CCN(C)C(C)=O)cc3c(c2OC)OCO3)cc1 [Compound 4] | 15.56 fold | 7.55 fold | 5.08 fold | 1.74 fold | 3.31 fold | 6.29 fold | most remarkable effect | induced | 5.95 fold | increased UCP3 expression | increased moderately | most remarkable effect | –
COc1ccc(C(=O)C=Cc2cccc(OC(=O)C=Cc3ccccc3)c2)cc1 [Compound 5, 3-phenyl-2-propenoic acid 3-[3-(4-methoxyphenyl)-3-oxo-1-propenyl]phenyl ester] | 1.91 fold | 2.33 fold | 4.19 fold | 1.03 fold | 1.84 fold | 1.88 fold | – | induced | – | – | – | – | –
COc1ccc(C(=O)C=Cc2ccc(OC)c(OC)c2)cc1 [Compound 6, 3-(3,4-dimethoxyphenyl)-1-(4-methoxyphenyl)-2-propen-1-one] | 22.66 fold | 6.1 fold | 1.62 fold | 1.09 fold | 2.44 fold | 5.02 fold | most remarkable effect | – | 1.92 fold | increased UCP3 expression | increased moderately | most remarkable effect | –
COc1ccc(C=C2Oc3cc(O)ccc3C2=O)cc1 [Compound 7] | 2.95 fold | 2.33 fold | 1.12 fold | 1.03 fold | 1.06 fold | 2.16 fold | – | – | – | – | – | – | –
COc1ccc(C(=O)C=Cc2ccc(OC)cc2OC)cc1 [Compound 8, 3-(2,4-dimethoxyphenyl)-1-(4-methoxyphenyl)-2-propen-1-one] | 9.49 fold | 4.68 fold | 1.29 fold | 1.15 fold | 1.88 fold | 3.36 fold | – | – | – | – | – | – | –
